PubChem BioAssay (NCI)
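Five compound concentrations were applied to cells in 96-well plates for 48 hours; endpoints were derived by simple linear interpolation of the resulting dose-response curve. Definition used: TGI = concentration required for complete inhibition of growth.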

Legend:
Assay in all cases: DTP human tumour cell line panel, 48 h
[1] = test system: SF-268 CNS
[2] = test system: RPMI-8226 leukemia
[3] = test system: OVCAR-8 ovarian
[4] = test system: SN12C renal
[5] = test system: NCI-H23 lung
[6] = test system: LOX IMVI melanoma
[7] = test system: A549 NSCLC
[8] = test system: SK-MEL-28 melanoma
[9] = test system: M19-MEL melanoma
[10] = test system: SK-MEL-2 melanoma
[11] = test system: SNB-19 CNS
[12] = test system: A498 renal
[13] = test system: SW-620 colon
[14] = test system: UACC-257 melanoma
[15] = test system: 786-0 renal
[16] = test system: RXF 393 renal
[17] = test system: COLO 205 colon
[18] = test system: HCT-116 colon
[19] = test system: HOP-92 NSCLC
[20] = test system: DLD-1 colon
[21] = test system: TK-10 renal
[22] = test system: HOP-18 NSCLC
[23] = test system: M14 melanoma
[24] = test system: OVCAR-5 ovarian
[25] = test system: EKVX NSCLC
[26] = test system: MALME-3M melanoma
[27] = test system: HT29 colon
[28] = test system: UACC-62 melanoma
[29] = test system: XF 498 CNS
[30] = test system: SF-539 CNS
[31] = test system: MOLT-4 leukemia
[32] = test system: IGROV1 ovarian
[33] = test system: HCC-2998 colon
[34] = test system: CAKI-1 renal
[35] = test system: DMS 273 small cell lung
[36] = test system: U251 CNS
[37] = test system: KM20L2 colon
[38] = test system: KM12 colon
[39] = test system: HL-60(TB) leukemia
[40] = test system: NCI-H226 lung
[41] = test system: SK-OV-3 ovarian
[42] = test system: SNB-75 CNS
[43] = test system: NCI-H460 lung
[44] = test system: HCT-15 colon
[45] = test system: K-562 leukemia
[46] = test system: UO-31 renal
[47] = test system: HOP-62 NSCLC
[48] = test system: LXFL 529 NSCLC
[49] = test system: ACHN renal
[50] = test system: OVCAR-4 ovarian
[51] = test system: SK-MEL-5 melanoma
[52] = test system: OVCAR-3 ovarian
[53] = test system: SF-295 CNS

With `COC1O[C@@H]2COC(C)(C)O[C@@H]2C(=O)N1Nc1ccc([N+](=O)[O-])cc1` (stereo partly drawn) the TGI [1] was > 100 µM, the TGI [2] was 45.4 µM and the TGI [3] was > 100 µM. The TGI [4] was > 100 µM, the TGI [5] was > 100 µM and the TGI [6] was 95.5 µM. For the same compound, the TGI [7] was > 100 µM, the TGI [8] was > 100 µM and the TGI [9] was > 100 µM. The TGI [10] was > 100 µM, the TGI [11] was > 100 µM and the TGI [12] was > 100 µM. The TGI [13] was 72.9 µM, the TGI [14] was > 100 µM and the TGI [15] was > 100 µM. For the same compound, the TGI [16] was > 100 µM, the TGI [17] was > 100 µM and the TGI [18] was > 100 µM. For the same compound, the TGI [19] was > 100 µM, the TGI [20] was > 100 µM and the TGI [21] was > 100 µM. The TGI [22] was > 100 µM, the TGI [23] was > 100 µM and the TGI [24] was > 100 µM. For the same compound, the TGI [25] was > 100 µM, the TGI [26] was > 100 µM and the TGI [27] was > 100 µM. For the same compound, the TGI [28] was > 100 µM, the TGI [29] was > 100 µM and the TGI [30] was > 100 µM. The TGI [31] was > 100 µM, the TGI [32] was > 100 µM and the TGI [33] was > 100 µM. The TGI [34] was > 100 µM, the TGI [35] was > 100 µM and the TGI [36] was > 100 µM. The TGI [37] was > 100 µM, the TGI [38] was > 100 µM and the TGI [39] was > 100 µM. The TGI [40] was > 100 µM, the TGI [41] was > 100 µM and the TGI [42] was > 100 µM. The TGI [43] was > 100 µM, the TGI [44] was > 100 µM and the TGI [45] was > 100 µM. The TGI [46] was > 100 µM, the TGI [47] was > 100 µM and the TGI [48] was > 100 µM. For the same compound, the TGI [49] was > 100 µM, the TGI [50] was > 100 µM and the TGI [51] was > 100 µM. The TGI [52] was > 100 µM and the TGI [53] was > 100 µM.
